Assay results from patent US20250002608A1, “TREATMENT OF PAIN” (UTI Limited Partnership, priority 2021, published 2025).

Assays:
ALK [1] = settings: human, in vivo; cited from earlier work
[2] = tested on: small (<20 μm) DRG neurons; assay: Neurite outgrowth of DRG neurons co-cultured with ALKAL2-transfected HEK cells; format: cell-based, mouse
From the text: Previous work has shown that the ALK receptor plays a central role in the development of neural-crest derived cells and neurite outgrowth (18, 19, 37, 38). Using a co-culture system, we tested whether secreted ALKAL2 is able to activate ALK on DRG neurons, thus promoting neurite outgrowth through an autocrine/paracrine signaling process. In this assay, HEK cell monolayers seeded in the upper chamber of a transwell were transfected with ALKAL2, and then placed above acutely dissociated DRG neurons seeded into the lower chamber (FIG. 4A). DRG neurons were exposed to HEK-secreted ALKAL2 for a further 16 hours, after which, neurite growth was assessed on small and medium size neurons (FIG. 4A).
DRG neurons were harvested from adult mice and enzymatically dissociated in Hank's balanced salt solution (HBSS) containing 2 mg/ml collagenase type I and 4 mg/ml dispase (Invitrogen) for 45 min at 37° C. DRGs were rinsed twice in HBSS and once in Neurobasal A culture medium (Thermo Fisher Scientific) supplemented with 2% B-27, 10% heat-inactivated fetal bovine serum (HI-FBS), 100 μg/ml streptomycin, 100 U/ml penicillin, 100 ng/ml of Nerve Growth Factor (NGF) and 100 ng/ml glial cell-derived neurotrophic factor (GDNF) (all from Invitrogen). Individual neurons were dispersed by trituration through a fire-polished glass Pasteur pipette in 4 ml media and cultured overnight at 37° C. with 5% CO2 in 96% humidity on glass coverslips previously treated with 25% Poly-Ornithine and Laminin (both from Sigma).
For co-culture experiments, human embryonic kidney (HEK) 293 tsA-201 cells were grown to 80% confluence at 37° C. (5% CO2) in Dulbecco's modified Eagle's medium (+10% fetal bovine serum, 200 units/ml penicillin and 0.2 mg/ml streptomycin (Invitrogen, Carlsbad, CA, USA)) in the transwell of a 12-well cell culture plate (Gibco). Cells were transfected with 0.5 or 1 μg of ALKAL2 plasmid (Genomics, ABIN3292379) using the calcium phosphate method and washed 12 hours after transfection. After another 8 hours, isolated DRG neurons plated on glass coverslips were placed in the bottom chamber of the 12-well plate and the media was changed to Neurobasal A culture medium (see above). Electrophysiological recordings or immunohistochemistry were conducted 24 hours later.
For the neurite outgrowth assay, cultured DRG neurons were either treated with increasing concentrations ([…], 1 nM, 10 nM, 100 nM and 1 μM) of recombinant mouse ALKAL2 (MyBioSource LLC, MBS14253) or co-cultured with ALKAL2 expressing HEK cells (see above) in Neurobasal A medium. After 24 h, the cells were washed twice with HBSS, fixed in 4% PFA for 15 min., incubated in blocking solution (PBS+1% BSA) for 30 min. and then immunostained with anti-β-tubulin III antibody (rabbit, 1/1000, Sigma-Aldrich) overnight at 4° C. Cells were washed in PBS twice then incubated with a goat-anti rabbit IgG conjugated to Alexa Fluor 488 (1/2000, Invitrogen) for 1 h. After several washes, coverslips were mounted on slides and confocal images acquired. Alexa-488 antibody was visualized by excitation with an argon laser […] and emission detected using a long-pass 530 nm filter. Alexa-555 antibody was visualized by excitation at 543 nm with a HeNe laser, and emission detected using a 585-615 nm band-pass filter.

small DRG neurons = assay: Excitability of small DRG neurons exposed to ALKAL2 (current clamp); format: cell-based, mouse; settings: for resting membrane potential (RMP): small DRG neurons, n=13
Description: DRG neurons were harvested from adult mice and enzymatically dissociated in Hank's balanced salt solution (HBSS) containing 2 mg/ml collagenase type I and 4 mg/ml dispase (Invitrogen) for 45 min at 37° C. […] Electrophysiological recordings were conducted using an external solution containing (in mM): 140.0 NaCl, 1.5 CaCl2, 2.0 MgCl2, 5.0 KCl, 10.0 HEPES, 10.0 D-glucose, pH 7.4 adjusted with NaOH, on the stage of an inverted epi-fluorescence microscope (Olympus IX51). DRG neuron were recorded based on size, knowing that TRPV1 is expressed in small neurons […], and pHluorin fluorescent signal. Action potentials were recorded using current clamp. Borosilicate glass (Harvard Apparatus Ltd.) pipettes were pulled and polished to 2-5 MQ resistance with a DMZ-Universal Puller (Zeitz-Instruments GmbH.) and filled with an internal solution containing (in mM): 140.0 KCl, 5.00 NaCl, 1 CaCl2, 1.0 EGTA, 10.0 HEPES, 1.0 MgCl2, 3.0 ATP Na2, pH 7.3 adjusted with KOH. All solutions were prepared and used at room temperature (22±2° C.) and their osmolarity adjusted to 310 mOsm. […] Recordings were performed using an Axopatch 200B amplifier (Axon Instruments, Foster City, CA, USA). Current-clamp protocols were applied using pClamp 10.4 software (Axon Instruments). […] Average DRG neuron capacitance was 12.45±0.85 pF. […] For prolonged ALKAL2 treatment, neurons were incubated with a low concentration of 10 nM for 16 hours.

[3] = tested on: DRG neurons from TRPV1-pHluorin mice; assay: Current-clamp recording of DRG neurons from TRPV1-pHluorin mice exposed to capsaicin; format: cell-based, mouse; settings: capsaicin 100 nM
Description: (§1) DRG neurons were harvested from adult mice and enzymatically dissociated in Hank's balanced salt solution (HBSS) containing 2 mg/ml collagenase type I and 4 mg/ml dispase (Invitrogen) for 45 min at 37° C. […] Electrophysiological recordings were conducted using an external solution containing (in mM): 140.0 NaCl, 1.5 CaCl2, 2.0 MgCl2, 5.0 KCl, 10.0 HEPES, 10.0 D-glucose, pH 7.4 adjusted with NaOH, on the stage of an inverted epi-fluorescence microscope (Olympus IX51). DRG neuron were recorded based on size, knowing that TRPV1 is expressed in small neurons […], and pHluorin fluorescent signal. Action potentials were recorded using current clamp. Borosilicate glass (Harvard Apparatus Ltd.) pipettes were pulled and polished to 2-5 MQ resistance with a DMZ-Universal Puller (Zeitz-Instruments GmbH.) and filled with an internal solution containing (in mM): 140.0 KCl, 5.00 NaCl, 1 CaCl2, 1.0 EGTA, 10.0 HEPES, 1.0 MgCl2, 3.0 ATP Na2, pH 7.3 adjusted with KOH. All solutions were prepared and used at room temperature (22±2° C.) and their osmolarity adjusted to 310 mOsm. […] Recordings were performed using an Axopatch 200B amplifier (Axon Instruments, Foster City, CA, USA). Current-clamp protocols were applied using pClamp 10.4 software (Axon Instruments). […] Average DRG neuron capacitance was 12.45±0.85 pF. […]

TRPV1 wild type = target: T1, TRPV1 wild type (Homo sapiens, UniProt Q8NER1); assay: Capsaicin-evoked TRPV1 current (I-V ramp) in HEK cells transfected with TRPV1 wild type; format: cell-based; settings: capsaicin 100 nM, TRPV1 WT
T1 construct: expressed in transfected cells; host or cells: HEK cells
T1 sequence (Q8NER1 whole entry, species assumed): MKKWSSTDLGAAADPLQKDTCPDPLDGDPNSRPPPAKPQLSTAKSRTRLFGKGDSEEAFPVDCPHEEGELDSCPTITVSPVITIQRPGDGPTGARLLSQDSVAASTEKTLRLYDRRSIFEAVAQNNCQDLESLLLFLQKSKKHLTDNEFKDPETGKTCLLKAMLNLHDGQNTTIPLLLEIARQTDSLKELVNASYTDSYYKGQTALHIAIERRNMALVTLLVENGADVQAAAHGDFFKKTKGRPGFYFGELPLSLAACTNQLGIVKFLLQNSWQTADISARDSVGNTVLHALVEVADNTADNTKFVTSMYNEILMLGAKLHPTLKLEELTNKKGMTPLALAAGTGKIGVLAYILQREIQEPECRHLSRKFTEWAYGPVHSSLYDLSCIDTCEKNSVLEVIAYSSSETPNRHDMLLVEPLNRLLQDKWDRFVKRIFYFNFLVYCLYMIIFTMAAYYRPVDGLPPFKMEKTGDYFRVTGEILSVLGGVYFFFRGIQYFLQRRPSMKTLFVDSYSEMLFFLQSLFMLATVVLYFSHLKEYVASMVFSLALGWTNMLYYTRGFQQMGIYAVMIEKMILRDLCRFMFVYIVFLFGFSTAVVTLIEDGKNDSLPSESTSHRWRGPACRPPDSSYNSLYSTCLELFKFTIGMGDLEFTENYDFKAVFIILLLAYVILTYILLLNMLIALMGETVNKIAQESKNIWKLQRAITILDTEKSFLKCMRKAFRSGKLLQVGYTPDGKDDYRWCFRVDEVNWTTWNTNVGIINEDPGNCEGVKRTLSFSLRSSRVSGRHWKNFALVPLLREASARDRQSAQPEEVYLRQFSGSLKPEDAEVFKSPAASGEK

DRG neurons from WT mice = assay: Current-clamp recording of DRG neurons from WT mice exposed to capsaicin; format: cell-based, mouse; settings: capsaicin 100 nM
Description: as §1

TRPV1-pHluorin [4] = target: T2, TRPV1-pHluorin (Mus musculus, UniProt Q704Y3); assay: Capsaicin dose-response by calcium imaging on DRG neurons from TRPV1-pHluorin mice; format: cell-based; settings: read-out: EC50 of dose-response curve evoked by capsaicin, room temperature (22° C.), n=28
T2 construct: fused on or other part: superecliptic pHluorin (ecliptic GFP, EcGFP) inserted into the extracellular turret between His and Lys (615/616; H614/K615 elsewhere in the source)
T2 sequence (Q704Y3 1-615 limits assumed): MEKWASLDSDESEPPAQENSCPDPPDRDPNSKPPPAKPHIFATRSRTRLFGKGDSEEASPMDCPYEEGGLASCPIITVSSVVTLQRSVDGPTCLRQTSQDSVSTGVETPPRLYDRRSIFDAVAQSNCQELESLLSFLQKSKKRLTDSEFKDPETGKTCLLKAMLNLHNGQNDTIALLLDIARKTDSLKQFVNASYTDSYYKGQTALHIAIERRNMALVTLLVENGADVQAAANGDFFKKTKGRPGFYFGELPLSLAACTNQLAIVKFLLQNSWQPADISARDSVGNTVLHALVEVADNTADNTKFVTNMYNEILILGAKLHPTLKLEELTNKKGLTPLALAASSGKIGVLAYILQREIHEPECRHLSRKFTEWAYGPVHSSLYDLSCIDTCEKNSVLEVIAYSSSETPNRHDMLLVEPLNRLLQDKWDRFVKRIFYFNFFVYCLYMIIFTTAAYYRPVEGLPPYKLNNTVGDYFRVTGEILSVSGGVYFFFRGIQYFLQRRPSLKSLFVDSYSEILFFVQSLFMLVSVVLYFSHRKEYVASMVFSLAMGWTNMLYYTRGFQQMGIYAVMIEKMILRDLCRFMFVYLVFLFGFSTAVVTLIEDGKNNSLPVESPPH
T2 sequence (Q704Y3 616-839 limits assumed): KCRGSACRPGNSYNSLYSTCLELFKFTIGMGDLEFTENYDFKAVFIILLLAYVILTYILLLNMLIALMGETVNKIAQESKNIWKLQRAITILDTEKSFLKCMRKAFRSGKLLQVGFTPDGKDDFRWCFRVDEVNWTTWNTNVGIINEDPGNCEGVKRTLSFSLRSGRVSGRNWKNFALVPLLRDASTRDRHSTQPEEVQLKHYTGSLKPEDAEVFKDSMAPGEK

TRPV1-pHluorin [5] = assay: Capsaicin-evoked TRPV1 current (I-V ramp) in HEK cells transfected with TRPV1-pHluorin; format: cell-based; settings: capsaicin 100 nM
ALK [6] = target: T3, ALK (Mus musculus, UniProt P97793); assay: Thermal hyperalgesia induced by intrathecal ALKAL2; format: in vivo
T3 construct: from tissue; host or cells: living mice, spinal dorsal horn
T3 sequence (P97793 19-1621): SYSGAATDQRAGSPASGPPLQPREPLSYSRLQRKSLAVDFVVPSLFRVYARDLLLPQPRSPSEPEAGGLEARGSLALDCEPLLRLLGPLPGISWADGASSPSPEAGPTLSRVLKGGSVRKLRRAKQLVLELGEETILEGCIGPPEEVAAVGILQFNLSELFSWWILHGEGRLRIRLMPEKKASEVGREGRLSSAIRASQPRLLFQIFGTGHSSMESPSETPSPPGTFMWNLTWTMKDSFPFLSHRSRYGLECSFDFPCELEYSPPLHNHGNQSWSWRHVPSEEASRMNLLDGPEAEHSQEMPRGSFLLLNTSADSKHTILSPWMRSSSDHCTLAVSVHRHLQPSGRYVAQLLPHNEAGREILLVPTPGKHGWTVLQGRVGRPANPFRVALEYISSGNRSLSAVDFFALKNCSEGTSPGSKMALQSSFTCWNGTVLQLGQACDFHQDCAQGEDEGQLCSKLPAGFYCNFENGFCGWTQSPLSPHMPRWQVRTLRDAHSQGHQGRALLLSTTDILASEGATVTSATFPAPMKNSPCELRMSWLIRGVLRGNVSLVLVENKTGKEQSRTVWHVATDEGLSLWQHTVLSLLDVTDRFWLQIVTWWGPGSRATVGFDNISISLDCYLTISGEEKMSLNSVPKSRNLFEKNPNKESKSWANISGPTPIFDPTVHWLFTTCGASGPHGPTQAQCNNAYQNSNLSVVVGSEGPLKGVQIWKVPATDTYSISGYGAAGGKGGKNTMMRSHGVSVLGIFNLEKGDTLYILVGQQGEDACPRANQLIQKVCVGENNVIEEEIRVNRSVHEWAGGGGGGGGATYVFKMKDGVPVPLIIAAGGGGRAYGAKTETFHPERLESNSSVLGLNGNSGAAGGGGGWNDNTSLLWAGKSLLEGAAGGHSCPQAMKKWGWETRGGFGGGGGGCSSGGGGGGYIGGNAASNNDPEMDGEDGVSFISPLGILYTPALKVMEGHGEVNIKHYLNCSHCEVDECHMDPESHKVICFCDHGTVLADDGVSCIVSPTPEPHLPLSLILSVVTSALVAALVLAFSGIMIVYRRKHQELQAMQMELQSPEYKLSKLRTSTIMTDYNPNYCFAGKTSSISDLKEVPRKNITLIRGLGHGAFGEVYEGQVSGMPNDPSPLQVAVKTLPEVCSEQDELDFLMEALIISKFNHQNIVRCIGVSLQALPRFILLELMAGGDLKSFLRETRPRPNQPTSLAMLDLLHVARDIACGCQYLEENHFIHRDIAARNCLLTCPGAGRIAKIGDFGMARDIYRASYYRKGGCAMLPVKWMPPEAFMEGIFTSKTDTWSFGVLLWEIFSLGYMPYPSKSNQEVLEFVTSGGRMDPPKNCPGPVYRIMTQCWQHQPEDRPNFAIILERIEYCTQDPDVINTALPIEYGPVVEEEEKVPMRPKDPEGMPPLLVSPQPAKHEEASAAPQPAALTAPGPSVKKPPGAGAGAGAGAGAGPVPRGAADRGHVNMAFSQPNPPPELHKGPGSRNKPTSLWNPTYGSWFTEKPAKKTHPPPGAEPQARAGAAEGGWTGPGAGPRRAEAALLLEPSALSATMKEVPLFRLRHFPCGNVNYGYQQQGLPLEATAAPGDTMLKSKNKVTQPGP
Description: (§2) Intrathecal injections were performed in conscious mice. Briefly, mice were manually restrained, the dorsal fur of each mouse was shaved, the spinal column was arched, and a 30-gauge needle attached in a PE20 Polyethylene tube to a 25 μl Hamilton micro syringe (Hamilton, Birmingham, UK) was inserted into the subarachnoid space between the L4 and L5 vertebrae. Accurate positioning of the needle tip was confirmed by a characteristic tail-flick response of animal when the needle if correctly positioned. Intrathecal injections of 10 μl were delivered over a period of 5 seconds.
Three trials for each mouse were performed.

ALK [7] = target: T3, ALK; assay: pALK immunostaining in the spinal dorsal horn after intrathecal ALKAL2; format: in vivo; settings: 30 min following intrathecal ALKAL2 injection
Description: as §2

[8] = target: anaplastic lymphoma kinase (ALK) receptor, endogenous on mouse DRG neurons and in the mouse spinal dorsal horn (mouse) (UniProt P97793); assay: cell-based or functional assay
Sequence of anaplastic lymphoma kinase (ALK) receptor, endogenous on mouse DRG neurons and in the mouse spinal dorsal horn (mouse) (P97793 19-1621): as above

[9] = ALKAL2 co-culture in the presence of Lorlatinib 1 μM
[10] = ALKAL2 plasmid co-culture 16 h, small DRG neurons
[11] = ALKAL2 transfected condition vs control

Molecule: Cc1cc(Nc2ncc(Cl)c(Nc3ccccc3S(=O)(=O)C(C)C)n2)c(OC(C)C)cc1C1CCNCC1 [Ceritinib]
- effect on pain in NSCL cancer patients (ALK [1]): could reduce chest, arm and shoulder pain

Molecule: C[C@H]1Oc2cc(cnc2N)-c2c(nn(C)c2C#N)CN(C)C(=O)c2ccc(F)cc21 [Lorlatinib]
- neurites per neuron [2, 9]: 8.7±1.9
- number of branch points per neuron [2, 9]: 3.6±0.5
- total neurite length per neuron [2, 9]: 83±8.8 μm
- action potential (AP) threshold (small DRG neurons; ALKAL2+Lorlatinib group, n=9): −31.59±1.76 mV
- resting membrane potential (RMP) (small DRG neurons; ALKAL2+Lorlatinib group): −54.5±1.53 mV

Molecule: COc1cc(CNC(=O)CCCC/C=C/C(C)C)ccc1O [capsaicin]
- resting membrane potential after application of capsaicin [3]: −38.01±2.17 mV
- AP frequency after capsaicin ([3]; 400 pA current injection): 17.22±0.84 Hz
- peak inward current at −100 mV (TRPV1 wild type): −10.2±1.63 pA/pF
- peak outward current at +100 mV (TRPV1 wild type): 62.82±11.72 pA/pF
- resting membrane potential after application of capsaicin (DRG neurons from WT mice): −36.61±1.83 mV
- AP frequency after capsaicin (DRG neurons from WT mice; 400 pA current injection): 18.56±2.44 Hz
- EC50 (TRPV1-pHluorin [4]): 1060 ± 90 nM
- peak inward current at −100 mV (TRPV1-pHluorin [5]): −7.33±2.91 pA/pF
- peak outward current at +100 mV (TRPV1-pHluorin [5]): 61.36±11.97 pA/pF

B1: ALKAL2: ligand of the ALK receptor; recombinant mouse ALKAL2 or secreted by HEK cells transfected with ALKAL2 plasmid (protein)
chain: QSRGPADRQTLLRLLVELVQELKKFHIGDSKRLQLLGESDFALGRREATDYGADQEEQRVEIVPRDLRMKDKFLKHLTGPLYFSPKCSKHFHRLYHNTRDCTIPAYYKRCARLLTRLAVSPMCMER
- number of branch points per neuron [2, 10]: 8.9±0.9
- total neurite length per neuron [2, 10]: 267.1±2.2 μm
- total neurites per neuron [2, 10]: 18.6±1.2
- increase in the total neurite length per neuron [2, 11]: five-fold increase
- increase in the total number of neurites (primary and secondary branches) and branching points [2, 11]: two-fold increase
- time after administration at which thermal hypersensitivity is back to baseline (ALK [6]; intrathecal ALKAL2, n=5 each group): 72 h
- thermal hyperalgesia in naïve mice (ALK [6]; recombinant ALKAL2 intrathecal, 0.01, 0.1, 1 uM): induced thermal hyperalgesia lasting several hours in a dose-dependent manner
- action potential (AP) threshold (small DRG neurons; ALKAL2 group, n=11): −40.57±2.88 mV
- resting membrane potential (RMP) (small DRG neurons; ALKAL2 group): −55.15±2.21 mV
- AP frequency evoked by ascending steps of injected current (small DRG neurons; recombinant ALKAL2 for 16 h (10 nM)): pronounced increase
- pALK in the spinal dorsal horn (ALK [7]): increase in pALK

B2: ALKAL2 secreted by HEK 293 tsA-201 cells transfected with ALKAL2 plasmid (Genomics, ABIN3292379) (ligand, UniProt Q6UX46 25-152, looked up, species assumed)
ALK and LTK ligand 2: GAEPREPADGQALLRLVVELVQELRKHHSAEHKGLQLLGRDCALGRAEAAGLGPSPEQRVEIVPRDLRMKDKFLKHLTGPLYFSPKCSKHFHRLYHNTRDCTIPAYYKRCARLLTRLAVSPVCMEDKQ
- total neurite length per neuron [8]: 267 µm
- total neurite length per neuron, transwell co-culture [8]: 5 fold
- total neurites in small (<20 µm) DRG neurons (neurites per neuron) [8]: 18.6
